Legend:
[1] = Human liver microsomes incubations: half-life and intrinsic clearance; assay type: in vitro ADME
Protocol: For the generation of Phase I metabolites: tested compounds, at a 10 μM concentration (1 μL of 5 mM DMSO stock solution), were incubated with HLM (1 mg protein/mL), Vivid® regenerating system (5 μL) and NADPH (1mM) in ABIC 50 mM buffer pH 7.4, for a total incubation volume of 500 μL. Incubations were run in duplicate, at 37 °C. Aliquots were collected at 0, 5, 10, 20, 30, 40, 50, 60, 75, 90, 120, 180 min and reactions were stopped by adding and ice-cold solution of reserpine (2.5 μM) in acetonitrile. Additional aliquots were taken at 0 and 120 min and subsequently treated with L-lysine (100 µM) and sodium cyanoborohydride (10 µM) or glutathione (100 µM). Following centrifugation (10,000 rpm, 15 min, RT), the clear supernatants were collected and analyzed LC-ESI-HRMS/MS. Control incubations were conducted in the same conditions: (1) using DMSO as negative control, in absence of the test drug; (2) using heat-denatured HLM (90 °C, 15 min); (3) using nevirapine, as a positive control, instead of the tested compound; and (4) in absence of NADPH co-factor.
The in vitro depletion half-lives of tested compounds t1/2 were calculated using Equation (1), assuming that testing compounds follow a first-order kinetic trend. The “slope” was determined from linear fitting of the natural logarithm of the concentration of drug remaining plotted against time:(1) t1/2=ln2/slope
The intrinsic clearance in HLM (CLint, HLM) was calculated using Equation (2):(2) CLint HLM =ln2/ t1/2 x mL incubation/mg microsomes x 45 mg microsomes/g liver x 26 g liver/Kg b.w.

[2] = In vitro reactions with bionucleophiles; conditions: with or without enzymatic conditions (S9 rat liver incubations)
Protocol: To a solution of compound 13d in acetonitrile (1.00 eq., 10.1 mg in 400 µL, 5.04 × 10^−2 M) reduced glutathione (4.00 eq. 25.2 mg, 82.00 µmol) dissolved in 400 µL of ABIC buffer 50 mM pH 7.4 was added. The reaction mixture was incubated for 24 h at 37 °C and monitored by LC-ESI-HRMS/MS.
To a solution of compound 13k in acetonitrile (1.00 eq., 4.3 mg in 200 µL, 3.92 × 10^−2 M) reduced glutathione (4.00 eq. 9.64 mg, 31.36 µmol) dissolved in 200 µL of ABIC buffer 50 mM pH 7.4 was added. The reaction mixture was incubated for 24 h at 37 °C and monitored by LC-ESI-HRMS/MS.
SLMP53-1_M5 (1.00 eq., 2.1 mg, dissolved in 150 µL of ACN) was added to a L-lysine (2 eq.) solution in 50 mM ABIC buffer pH 7.4. Following incubation for 24 h at 37 °C a solution of cyanoborohydride (2 eq) was added. The mixture was analyzed by LC-ESI(+)-HRMS/MS.

Intrinsic Clearance ([1]; HLM, calculated from half-life (Equation 2)): 5.5 mL/min/kg | clearance classification ([1]; HLM, classification after ref 32): low clearance | half-life at 10 μM ([1]; human, liver microsomes, pH 7.4, HLM 1 mg protein/mL, 10 μM, NADPH, 37 °C): 1.53 h
SMILES: CCCn1c(Br)c(C[C@H]2CO[C@]3(c4ccccc4)c4ccccc4C(=O)N23)c2ccccc21 [Compound 13d, (3S, 9bR)-3-((2-bromo-1-propyl-1H-indol-3-yl)methyl)-9b-phenyl-2,3-dihydrooxazolo[2,3-a]isoindol-5(9bH)-one]
products of addition of GSH with concomitant loss of bromine [2]: no products compatible with the addition of GSH, and the concomitant loss of bromine, were detected
